Assay results reported in ChEMBL document CHEMBL3885861, “Open TG-GATES”.

Species on record: Rattus norvegicus
Experiment: Open TG-GATES - Regimen: Daily Repeat
Assay type: toxicity, organism-based, Sprague-Dawley
Design: regimen Daily Repeat, gender Male, age 6 weeks
Details: in vivo, po, route gavage; for APTT / Bas / Eos / Fbg / Hb / Ht / Lym / MCH / MCHC / MCV / Mono / Neu / PT / Plat / RBC / Ret / WBC: tissue Blood; for KIDNEY_L / KIDNEY_R / KIDNEY_TOTAL: tissue Kidney; for LIVER: tissue Liver; for A/G / ALP / ALT / AST / BUN / CRE / Ca / Cl / DBIL / GLC / IP / K / LDH / Na / PL / RALB / TBIL / TC / TG / TP / gamma-GTP: tissue Plasma
[1] = 150 mg/kg, 72 h, dose level Middle, time 3 day
[2] = 150 mg/kg, […], dose level Middle, time 7 day
[3] = 150 mg/kg, […], dose level Middle, time 14 day
[4] = 150 mg/kg, […], dose level Middle, time 28 day
[5] = 500 mg/kg, 72 h, dose level High, time 3 day
[6] = 500 mg/kg, […], dose level High, time 7 day
[7] = 500 mg/kg, […], dose level High, time 14 day
[8] = 500 mg/kg, […], dose level High, time 28 day

## CN1C(=O)CCS(=O)(=O)C1c1ccc(Cl)cc1 (centres undefined) [CHLORMEZANONE]
[1]
  TERMINAL_BW: 226.1 g
  APTT: 15.7 s
  Bas: 0%
  Eos: 1%
  Fbg: 296.4 mg/dL
  Hb: 13.5 g/dL
  Ht: 39.4%
  Lym: 76%
  MCH: 21.8 pg
  MCHC: 34.1%
  MCV: 63.8 fL
  Mono: 2.8%
  Neu: 19.4%
  PT: 11.4 s
  Plat: 123.4 x10_4/uL
  RBC: 618 x10_4/ul
  Ret: 6.2%
  WBC: 86.7 x10_2/uL
  KIDNEY_L: 0.9 g
  KIDNEY_R: 0.9 g
  KIDNEY_TOTAL: 1.8 g
  LIVER: 13 g
  A/G: 0.9
  ALP: 1825 IU/L
  ALT: 52.2 IU/L
  AST: 69 IU/L
  BUN: 15.4 mg/dL
  CRE: 0.2 mg/dL
  Ca: 11.2 mg/dL
  Cl: 106.6 meq/L
  DBIL: 0.014 mg/dL
  GLC: 179.6 mg/dL
  IP: 7.1 mg/dL
  K: 4.5 meq/L
  LDH: 74.6 IU/L
  Na: 143 meq/L
  PL: 144 mg/dL
  RALB: 2.8 g/dL
  TBIL: 0.026 mg/dL
  TC: 80.4 mg/dL
  TG: 94.6 mg/dL
  TP: 5.9 g/dL
  gamma-GTP: 1.4 IU/L
[2]
  TERMINAL_BW: 265.5 g
  APTT: 17 s
  Bas: 0%
  Eos: 0.8%
  Fbg: 302.2 mg/dL
  Hb: 13.2 g/dL
  Ht: 39.4%
  Lym: 78.2%
  MCH: 21.3 pg
  MCHC: 33.5%
  MCV: 63.4 fL
  Mono: 3%
  Neu: 18%
  PT: 11.5 s
  Plat: 129.2 x10_4/uL
  RBC: 621 x10_4/ul
  Ret: 6.4%
  WBC: 79.7 x10_2/uL
  KIDNEY_L: 1 g
  KIDNEY_R: 1 g
  KIDNEY_TOTAL: 2 g
  LIVER: 14.4 g
  A/G: 0.9
  ALP: 1471.4 IU/L
  ALT: 46.2 IU/L
  AST: 63.6 IU/L
  BUN: 16.6 mg/dL
  CRE: 0.2 mg/dL
  Ca: 11.5 mg/dL
  Cl: 107.8 meq/L
  DBIL: 0.014 mg/dL
  GLC: 193.2 mg/dL
  IP: 6.9 mg/dL
  K: 4.2 meq/L
  LDH: 71.2 IU/L
  Na: 143.8 meq/L
  PL: 142.2 mg/dL
  RALB: 2.8 g/dL
  TBIL: 0.02 mg/dL
  TC: 80.6 mg/dL
  TG: 87 mg/dL
  TP: 6 g/dL
  gamma-GTP: 1.2 IU/L
[3]
  TERMINAL_BW: 313.6 g
  APTT: 19.7 s
  Bas: 0%
  Eos: 0.8%
  Fbg: 306.2 mg/dL
  Hb: 14 g/dL
  Ht: 40.1%
  Lym: 80%
  MCH: 21 pg
  MCHC: 34.8%
  MCV: 60.3 fL
  Mono: 2%
  Neu: 16.2%
  PT: 11.6 s
  Plat: 118.9 x10_4/uL
  RBC: 665.2 x10_4/ul
  Ret: 4.2%
  WBC: 102.9 x10_2/uL
  KIDNEY_L: 1.2 g
  KIDNEY_R: 1.2 g
  KIDNEY_TOTAL: 2.4 g
  LIVER: 15.9 g
  A/G: 0.8
  ALP: 1404.2 IU/L
  ALT: 52.2 IU/L
  AST: 63.4 IU/L
  BUN: 17.2 mg/dL
  CRE: 0.2 mg/dL
  Ca: 11.3 mg/dL
  Cl: 106.8 meq/L
  DBIL: 0.006 mg/dL
  GLC: 188.2 mg/dL
  IP: 7 mg/dL
  K: 4.3 meq/L
  LDH: 76.6 IU/L
  Na: 142.8 meq/L
  PL: 136.8 mg/dL
  RALB: 2.9 g/dL
  TBIL: 0.052 mg/dL
  TC: 74.4 mg/dL
  TG: 74.4 mg/dL
  TP: 6.3 g/dL
  gamma-GTP: 1 IU/L
[4]
  TERMINAL_BW: 389.8 g
  APTT: 17.9 s
  Bas: 0%
  Eos: 1%
  Fbg: 281 mg/dL
  Hb: 14.5 g/dL
  Ht: 41.2%
  Lym: 78.8%
  MCH: 19.7 pg
  MCHC: 35.3%
  MCV: 55.7 fL
  Mono: 2.2%
  Neu: 16.8%
  PT: 11.9 s
  Plat: 105.4 x10_4/uL
  RBC: 741.2 x10_4/ul
  Ret: 2.8%
  WBC: 97.2 x10_2/uL
  KIDNEY_L: 1.3 g
  KIDNEY_R: 1.3 g
  KIDNEY_TOTAL: 2.5 g
  LIVER: 18.1 g
  A/G: 0.9
  ALP: 1029.8 IU/L
  ALT: 46 IU/L
  AST: 58 IU/L
  BUN: 16.8 mg/dL
  CRE: 0.3 mg/dL
  Ca: 10.7 mg/dL
  Cl: 105.8 meq/L
  DBIL: 0.01 mg/dL
  GLC: 190.4 mg/dL
  IP: 5.8 mg/dL
  K: 4.1 meq/L
  LDH: 63.4 IU/L
  Na: 142.8 meq/L
  PL: 153.8 mg/dL
  RALB: 2.9 g/dL
  TBIL: 0.058 mg/dL
  TC: 83.4 mg/dL
  TG: 93.6 mg/dL
  TP: 6.4 g/dL
  gamma-GTP: 1 IU/L
[5]
  TERMINAL_BW: 218.1 g
  APTT: 22.2 s
  Bas: 0%
  Eos: 1%
  Fbg: 285.2 mg/dL
  Hb: 13.2 g/dL
  Ht: 38.9%
  Lym: 75.2%
  MCH: 21.2 pg
  MCHC: 33.9%
  MCV: 62.8 fL
  Mono: 3.2%
  Neu: 20.2%
  PT: 11.4 s
  Plat: 115.7 x10_4/uL
  RBC: 620.2 x10_4/ul
  Ret: 5.3%
  WBC: 90.9 x10_2/uL
  KIDNEY_L: 0.9 g
  KIDNEY_R: 0.9 g
  KIDNEY_TOTAL: 1.9 g
  LIVER: 13.5 g
  A/G: 0.9
  ALP: 1900.8 IU/L
  ALT: 60.6 IU/L
  AST: 77.2 IU/L
  BUN: 12.6 mg/dL
  CRE: 0.2 mg/dL
  Ca: 10.8 mg/dL
  Cl: 107.2 meq/L
  DBIL: 0.02 mg/dL
  GLC: 179.4 mg/dL
  IP: 6.9 mg/dL
  K: 4.3 meq/L
  LDH: 101.4 IU/L
  Na: 142 meq/L
  PL: 157.6 mg/dL
  RALB: 2.6 g/dL
  TBIL: 0.05 mg/dL
  TC: 84.6 mg/dL
  TG: 99.4 mg/dL
  TP: 5.6 g/dL
  gamma-GTP: 1.6 IU/L
[6]
  TERMINAL_BW: 254.1 g
  APTT: 22 s
  Bas: 0%
  Eos: 0.8%
  Fbg: 341.2 mg/dL
  Hb: 12.6 g/dL
  Ht: 37.3%
  Lym: 70.4%
  MCH: 20.9 pg
  MCHC: 33.9%
  MCV: 61.5 fL
  Mono: 3.2%
  Neu: 24.8%
  PT: 11.5 s
  Plat: 147.1 x10_4/uL
  RBC: 606.6 x10_4/ul
  Ret: 6.9%
  WBC: 116.2 x10_2/uL
  KIDNEY_L: 1 g
  KIDNEY_R: 1 g
  KIDNEY_TOTAL: 2 g
  LIVER: 16 g
  A/G: 0.9
  ALP: 1196.8 IU/L
  ALT: 48.2 IU/L
  AST: 59.8 IU/L
  BUN: 16.6 mg/dL
  CRE: 0.2 mg/dL
  Ca: 11.7 mg/dL
  Cl: 106 meq/L
  DBIL: 0.016 mg/dL
  GLC: 202.2 mg/dL
  IP: 7 mg/dL
  K: 4.2 meq/L
  LDH: 96.2 IU/L
  Na: 143.6 meq/L
  PL: 144.8 mg/dL
  RALB: 3 g/dL
  TBIL: 0.032 mg/dL
  TC: 80.6 mg/dL
  TG: 70.2 mg/dL
  TP: 6.3 g/dL
  gamma-GTP: 1.8 IU/L
[7]
  TERMINAL_BW: 312.8 g
  APTT: 24.3 s
  Bas: 0%
  Eos: 0.6%
  Fbg: 314.6 mg/dL
  Hb: 13.4 g/dL
  Ht: 38.7%
  Lym: 76.8%
  MCH: 20.6 pg
  MCHC: 34.8%
  MCV: 59.4 fL
  Mono: 3.6%
  Neu: 18.2%
  PT: 12 s
  Plat: 122.7 x10_4/uL
  RBC: 651.4 x10_4/ul
  Ret: 6.4%
  WBC: 112.6 x10_2/uL
  KIDNEY_L: 1.2 g
  KIDNEY_R: 1.2 g
  KIDNEY_TOTAL: 2.4 g
  LIVER: 19 g
  A/G: 0.9
  ALP: 1377.8 IU/L
  ALT: 57.2 IU/L
  AST: 62.4 IU/L
  BUN: 16.4 mg/dL
  CRE: 0.2 mg/dL
  Ca: 11.4 mg/dL
  Cl: 106 meq/L
  DBIL: 0.018 mg/dL
  GLC: 195.6 mg/dL
  IP: 7.1 mg/dL
  K: 4.2 meq/L
  LDH: 122.6 IU/L
  Na: 143.8 meq/L
  PL: 149 mg/dL
  RALB: 2.9 g/dL
  TBIL: 0.084 mg/dL
  TC: 75 mg/dL
  TG: 88 mg/dL
  TP: 6.4 g/dL
  gamma-GTP: 2 IU/L
[8]
  TERMINAL_BW: 364.7 g
  APTT: 28.5 s
  Bas: 0%
  Eos: 1.2%
  Fbg: 286.4 mg/dL
  Hb: 13 g/dL
  Ht: 37.8%
  Lym: 77%
  MCH: 20.2 pg
  MCHC: 34.5%
  MCV: 58.5 fL
  Mono: 1.8%
  Neu: 19.6%
  PT: 12.6 s
  Plat: 119.4 x10_4/uL
  RBC: 646.6 x10_4/ul
  Ret: 7.6%
  WBC: 126.7 x10_2/uL
  KIDNEY_L: 1.3 g
  KIDNEY_R: 1.3 g
  KIDNEY_TOTAL: 2.5 g
  LIVER: 20.4 g
  A/G: 0.8
  ALP: 1039.2 IU/L
  ALT: 55.2 IU/L
  AST: 59.6 IU/L
  BUN: 16.8 mg/dL
  CRE: 0.3 mg/dL
  Ca: 10.6 mg/dL
  Cl: 106.4 meq/L
  DBIL: 0.014 mg/dL
  GLC: 188.8 mg/dL
  IP: 6.1 mg/dL
  K: 4.2 meq/L
  LDH: 70.8 IU/L
  Na: 143.6 meq/L
  PL: 148 mg/dL
  RALB: 2.9 g/dL
  TBIL: 0.082 mg/dL
  TC: 76 mg/dL
  TG: 67 mg/dL
  TP: 6.5 g/dL
  gamma-GTP: 2.4 IU/L
